According to ChEMBL document CHEMBL5055673, “Direct evidence of edge-to-face CH/π interaction for PAR-1 thrombin receptor activation” (Bioorg Med Chem, 2021):
Numbered stars: 1 amine (or outer) side, 2 acyl side, 3 side chain; on linkers, the order of the positions; unused ones are H or OH. Square brackets hold non-standard residues; d marks the D form. Peptide text beside a SMILES is read from it. Phe(3,4,5-F3) = N[C@@H](Cc1cc(F)c(F)c(F)c1)C(=O)O; Phe(F5) = N[C@@H](Cc1c(F)c(F)c(F)c(F)c1F)C(=O)O; X1 = O=C([C@H](Cc1c(F)c(F)cc(F)c1F)N[*:1])[*:2]; X2 = O=C([C@H](Cc1c(F)cc(F)c(F)c1F)N[*:1])[*:2]; X3 = O=C([C@H](Cc1cc(F)c(F)c(F)c1F)N[*:1])[*:2]; Phe(3,5-F2) = N[C@@H](Cc1cc(F)cc(F)c1)C(=O)O; X4 = O=C([C@H](Cc1ccc(F)c(F)c1F)N[*:1])[*:2]; X5 = O=C([C@H](Cc1cc(F)c(F)cc1F)N[*:1])[*:2]; X7 = O=C([C@H](Cc1c(F)cc(F)cc1F)N[*:1])[*:2]; Phe(2,6-F2) = N[C@@H](Cc1c(F)cccc1F)C(=O)O; X6 = O=C([C@H](Cc1cc(F)ccc1F)N[*:1])[*:2]; Phe(4-F) = N[C@@H](Cc1ccc(F)cc1)C(=O)O; Cha = N[C@@H](CC1CCCCC1)C(=O)O

Experiments:
[1] = molecular target: T1, Proteinase-activated receptor 1 (Homo sapiens) (UniProt P25116); test: Activation of PAR-1 in human platelet-rich plasma assessed as induction of platelet aggregation by turbidimetric method relative to S/Phe/FLLRNP; type: cell-based
T1 sequence (whole entry): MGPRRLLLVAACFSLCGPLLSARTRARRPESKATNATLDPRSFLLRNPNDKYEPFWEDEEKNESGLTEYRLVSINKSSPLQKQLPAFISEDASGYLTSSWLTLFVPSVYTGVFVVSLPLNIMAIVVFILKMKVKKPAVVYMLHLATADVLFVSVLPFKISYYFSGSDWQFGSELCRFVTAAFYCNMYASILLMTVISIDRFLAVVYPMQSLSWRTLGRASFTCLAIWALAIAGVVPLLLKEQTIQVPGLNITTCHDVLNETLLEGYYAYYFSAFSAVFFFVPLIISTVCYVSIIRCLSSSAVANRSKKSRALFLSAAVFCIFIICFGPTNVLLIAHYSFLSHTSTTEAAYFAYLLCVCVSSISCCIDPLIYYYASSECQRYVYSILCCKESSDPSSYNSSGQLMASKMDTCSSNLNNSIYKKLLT

[2] = molecular target: T2, Proteinase-activated receptor 1 (Homo sapiens, UniProt P25116); test: Activation of PAR-1 in human platelet-rich plasma assessed as induction of platelet aggregation by turbidimetric method
T2 sequence (P25116 whole entry): T1 sequence (whole entry)

Homo sapiens [3] = species: Homo sapiens; test: Induction of platelet aggregation in human platelet-rich plasma assessed as decrease in turbidity by turbidimetric method; type: functional
Homo sapiens [4] = species: Homo sapiens; test: Induction of platelet aggregation in human platelet-rich plasma assessed as increase in transmissivity by turbidimetric method; type: functional

Row | Compound | Activity ([1]; filed as activator) | Activity [1] | also measured
1 | H-SFLLNP-NH2 | 100% |  | 
2 | CC(C)C[C@H](NC(=O)[C@H](CC(C)C)NC(=O)[C@H](CC1CCCCC1)NC(=O)[C@@H](N)CO)C(=O)N[C@@H](CCCNC(=N)N)C(=O)N[C@@H](CC(N)=O)C(=O)N1CCC[C@H]1C(N)=O (H-S[Cha]LLRNP-NH2) |  | 3% | 
3 | CC(C)C[C@H](NC(=O)[C@H](Cc1cc(F)cc(F)c1)NC(=O)[C@@H](N)CO)C(=O)N[C@@H](CC(C)C)C(=O)N[C@@H](CC(N)=O)C(=O)N1CCC[C@H]1C(N)=O (H-S[Phe(3,5-F2)]LLNP-NH2) |  | 11% | 
4 | CC(C)C[C@H](NC(=O)[C@H](Cc1cc(F)c(F)c(F)c1)NC(=O)[C@@H](N)CO)C(=O)N[C@@H](CC(C)C)C(=O)N[C@@H](CC(N)=O)C(=O)N1CCC[C@H]1C(N)=O (H-S[Phe(3,4,5-F3)]LLNP-NH2) |  | 16% | 
5 | CC(C)C[C@H](NC(=O)[C@H](Cc1ccc(F)c(F)c1F)NC(=O)[C@@H](N)CO)C(=O)N[C@@H](CC(C)C)C(=O)N[C@@H](CC(N)=O)C(=O)N1CCC[C@H]1C(N)=O (H-S[X4]LLNP-NH2) | 98% |  | 
6 | CC(C)C[C@H](NC(=O)[C@H](Cc1c(F)cc(F)c(F)c1F)NC(=O)[C@@H](N)CO)C(=O)N[C@@H](CC(C)C)C(=O)N[C@@H](CC(N)=O)C(=O)N1CCC[C@H]1C(N)=O (H-S[X2]LLNP-NH2) |  | 34% | 
7 | CC(C)C[C@H](NC(=O)[C@H](CC(C)C)NC(=O)[C@H](Cc1cc(F)c(F)c(F)c1F)NC(=O)[C@@H](N)CO)C(=O)N[C@@H](CCCNC(=N)N)C(=O)N[C@@H](CC(N)=O)C(=O)N1CCC[C@H]1C(N)=O (H-S[X3]LLRNP-NH2) |  | 6% | 
8 | CC(C)C[C@H](NC(=O)[C@H](Cc1ccc(F)cc1)NC(=O)[C@@H](N)CO)C(=O)N[C@@H](CC(C)C)C(=O)N[C@@H](CC(N)=O)C(=O)N1CCC[C@H]1C(N)=O (H-S[Phe(4-F)]LLNP-NH2) | 250% |  | 
9 | H-SFLLRNP-NH2 | 100% |  | Activity (Homo sapiens [3]): Dose-dependent effect; Activity (Homo sapiens [4]): Dose-dependent effect
10 | CC(C)C[C@H](NC(=O)[C@H](Cc1c(F)c(F)c(F)c(F)c1F)NC(=O)[C@@H](N)CO)C(=O)N[C@@H](CC(C)C)C(=O)N[C@@H](CC(N)=O)C(=O)N1CCC[C@H]1C(N)=O (H-S[Phe(F5)]LLNP-NH2) |  | 0% | 
11 | H-SALLRNP-NH2 |  | 0% | EC50 [2]: Not Active

More lines, main results first:

Row | Activity ([1]; filed as activator) | Activity [1] | Compound | also measured
12 |  | 0% | CC(C)C[C@H](NC(=O)[C@H](CC(C)C)NC(=O)[C@H](Cc1c(F)c(F)c(F)c(F)c1F)NC(=O)[C@@H](N)CO)C(=O)N[C@@H](CCCNC(=N)N)C(=O)N[C@@H](CC(N)=O)C(=O)N1CCC[C@H]1C(N)=O (H-S[Phe(F5)]LLRNP-NH2) | EC50 [2]: Not Active
13 |  | 0% | CC(C)C[C@H](NC(=O)[C@H](CC(C)C)NC(=O)[C@H](Cc1c(F)c(F)cc(F)c1F)NC(=O)[C@@H](N)CO)C(=O)N[C@@H](CCCNC(=N)N)C(=O)N[C@@H](CC(N)=O)C(=O)N1CCC[C@H]1C(N)=O (H-S[X1]LLRNP-NH2) | EC50 [2]: Not Active
14 | 49% |  | CC(C)C[C@H](NC(=O)[C@H](Cc1c(F)cc(F)cc1F)NC(=O)[C@@H](N)CO)C(=O)N[C@@H](CC(C)C)C(=O)N[C@@H](CC(N)=O)C(=O)N1CCC[C@H]1C(N)=O (H-S[X7]LLNP-NH2) | 
15 |  | 34% | CC(C)C[C@H](NC(=O)[C@H](CC(C)C)NC(=O)[C@H](Cc1c(F)cc(F)c(F)c1F)NC(=O)[C@@H](N)CO)C(=O)N[C@@H](CCCNC(=N)N)C(=O)N[C@@H](CC(N)=O)C(=O)N1CCC[C@H]1C(N)=O (H-S[X2]LLRNP-NH2) | 
16 |  | 6% | CC(C)C[C@H](NC(=O)[C@H](Cc1cc(F)c(F)c(F)c1F)NC(=O)[C@@H](N)CO)C(=O)N[C@@H](CC(C)C)C(=O)N[C@@H](CC(N)=O)C(=O)N1CCC[C@H]1C(N)=O (H-S[X3]LLNP-NH2) | 
17 |  | 11% | CC(C)C[C@H](NC(=O)[C@H](Cc1c(F)cccc1F)NC(=O)[C@@H](N)CO)C(=O)N[C@@H](CC(C)C)C(=O)N[C@@H](CC(N)=O)C(=O)N1CCC[C@H]1C(N)=O (H-S[Phe(2,6-F2)]LLNP-NH2) | 
18 | 180% |  | CC(C)C[C@H](NC(=O)[C@H](Cc1cc(F)c(F)cc1F)NC(=O)[C@@H](N)CO)C(=O)N[C@@H](CC(C)C)C(=O)N[C@@H](CC(N)=O)C(=O)N1CCC[C@H]1C(N)=O (H-S[X5]LLNP-NH2) | 
19 |  | 35% | CC(C)C[C@H](NC(=O)[C@H](Cc1cc(F)ccc1F)NC(=O)[C@@H](N)CO)C(=O)N[C@@H](CC(C)C)C(=O)N[C@@H](CC(N)=O)C(=O)N1CCC[C@H]1C(N)=O (H-S[X6]LLNP-NH2) | 
